ChEMBL document CHEMBL1154535, “3-Hydroxyisoquinolines as inhibitors of HCV NS5b RNA-dependent RNA polymerase” (Bioorg Med Chem Lett, 2009)
Values after ≈ are worked out from the molar mass of the structure shown.

Key:
Hepatitis C virus [1] = test: Antiviral activity against HCV 1b in Huh-7/2209-23 cells by replicon assay; type: functional, organism-based, Hepacivirus hominis; details: genotype 1b
[2] = Aqueous solubility of compound; type: physicochemical; details: buffer
Hepatitis C virus [3] = test: Inhibition of HCV 1b NS5B polymerase; parameters: species or system Hepatitis C virus subtype 1b

Compound	IC50 (Hepatitis C virus [1]) [nM]	solubility [2] [µg/mL]	IC50 (Hepatitis C virus [3]) [nM]
O=S1(=O)N=C(c2nc(Cc3ccc(F)cc3)c3ccccc3c2O)c2ccccc21	440	16 (≈ 38.2 µM)	
CC(C)CCc1nc(C2=NS(=O)(=O)c3ccccc3N2)c(O)c2ccccc12			51000
O=S1(=O)N=C(c2nc(Cc3ccc(F)cc3)c3ccccc3c2O)c2cccc(-c3cncnc3)c21	380	9 (≈ 18.1 µM)	1800
O=S1(=O)N=C(c2nc(Cc3ccc(F)cc3)c3ccccc3c2O)c2cccc(-c3cccnc3)c21	150	3 (≈ 6.05 µM)	550
O=S1(=O)N=C(c2nc(Cc3ccccc3)c3ccccc3c2O)Nc2ccccc21			47000
O=S1(=O)N=C(c2nc(Cc3ccc(F)cc3)c3ccccc3c2O)c2cccc(-c3ccccc3)c21	800	41 (≈ 82.9 µM)	3900
O=c1ccc(-c2cccc3c2S(=O)(=O)N=C3c2nc(Cc3ccc(F)cc3)c3ccccc3c2O)c[nH]1	75	7 (≈ 13.7 µM)	410
O=S1(=O)N=C(c2nc(Cc3ccc(F)cc3)c3ccccc3c2O)c2cccc(Cl)c21	430	2 (≈ 4.42 µM)	580
CC(C)CCc1nc(C2=NS(=O)(=O)c3ccccc32)c(O)c2ccccc12			4500
O=S1(=O)N=C(c2nc(Cc3ccc(F)cc3)c3ccccc3c2O)c2cccc(-c3cn[nH]c3)c21	780		720
COc1cccc2c1S(=O)(=O)N=C2c1nc(Cc2ccc(F)cc2)c2ccccc2c1O	760	40 (≈ 89.2 µM)	610
O=c1cccc(-c2cccc3c2S(=O)(=O)N=C3c2nc(Cc3ccc(F)cc3)c3ccccc3c2O)[nH]1	400	6 (≈ 11.7 µM)	730
CC(=O)Nc1cccc(-c2cccc3c2S(=O)(=O)N=C3c2nc(Cc3ccc(F)cc3)c3ccccc3c2O)c1	940	17 (≈ 30.8 µM)	530
O=S1(=O)N=C(c2nc(CCC3CC3)c3ccccc3c2O)c2ccccc21	2700	10 (≈ 26.4 µM)	1000
O=S1(=O)N=C(c2nc(Cc3ccc(F)cc3)c3ccccc3c2O)c2cccc(-c3cccc(O)c3)c21	1100	3 (≈ 5.88 µM)	350
